Measured values published in paper PMC5391289 (Nature chemical biology, 2017).
Ends that are not written are not given here.

What was measured:
E. coli MC4100 = assay: Broth microdilution antimicrobial assay; format: cell-based, Escherichia coli; conditions: Mueller-Hinton broth, 100 µM to 49 nM, 37 °C, 18 h, at least 2 replicates
Bacillus subtilis 168 = assay: Broth microdilution antimicrobial assay; format: cell-based; conditions: Mueller-Hinton broth, 100 µM to 49 nM, 37 °C, 18 h, at least 2 replicates
[1] = system: Mycobacterium smegmatis NRRL B-14616; assay: Broth microdilution antimicrobial assay; format: cell-based; conditions: Mueller-Hinton broth, 100 µM to 49 nM, 37 °C, 24 h, at least 2 replicates
[2] = system: Enterococcus faecium U503 (VRE); assay: Broth microdilution antimicrobial assay; format: cell-based; conditions: Mueller-Hinton broth, 100 µM to 49 nM, 37 °C, 18 h, at least 2 replicates
[3] = system: Bacillus anthracis Sterne; format: cell-based
panel of bacteria = assay: Broth microdilution antimicrobial assay; format: cell-based; conditions: all organisms tested, 100 µM to 49 nM compound, 37 °C, no visible growth after 18 h (24 h M. smegmatis), at least 2 replicates

Sequence | growth-suppressive activity (E. coli MC4100) | growth-suppressive activity (Bacillus subtilis 168) | growth-suppressive activity (panel of bacteria) | further results
GFIGWGNDIFGHYSGGF (also: lariat or depsi (positions not given here)) [anantin B1] | weak activity | – | – | –
GFIGWGNDIFGHYSGG (also: lariat or depsi (positions not given here)) [anantin B2] | weak activity | moderately active | – | –
GRPNWGFENDWSCVRVC (also: bicyclic or more (positions not given here)) [LP2006] | – | active | – | growth-suppressive activity [1]: active; growth-suppressive activity [2]: active; growth-suppressive activity [3]: active
SYHWGDYHDWHHGWYGWWDD (also: lariat or depsi (positions not given here)) [moomysin] | – | – | lacked growth suppressive activity towards all organisms tested | –
LLGLAGNDRLVLSKN (also: lariat or depsi (positions not given here)) [Citrulassin A] | – | – | lacked growth suppressive activity towards all organisms tested | –
LAGQGSPDLLGGHSLL (also: lariat or depsi (positions not given here)) [lagmysin] | – | – | lacked growth suppressive activity towards all organisms tested | –
